In PubChem BioAssay (NCI):
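A five-concentration, 48-hour dose response in 96-well plates underlies each endpoint, interpolated linearly between surrounding concentrations. GI50 = concentration required for 50% inhibition of growth. Definition used: TGI = concentration required for complete inhibition of growth.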

Tests used:
Assay in all cases: NCI tumour cell line growth inhibition, 48 h
[1] = system: SK-OV-3 ovarian
[2] = system: TK-10 renal
[3] = system: KM12 colon
[4] = system: SF-268 CNS
[5] = system: UACC-62 melanoma
[6] = system: UO-31 renal
[7] = system: NCI-H23 lung
[8] = system: SK-MEL-5 melanoma
[9] = system: OVCAR-4 ovarian
[10] = system: SK-MEL-28 melanoma

In the case of `COc1cccc(/C=C2\N=C(Cl)OC2=O)c1O`, the TGI [1] is reported as > 100 µM, the TGI [2] is reported as > 100 µM and the TGI [3] is reported as > 100 µM. For the same compound, the TGI [4] was > 100 µM, the TGI [5] was > 100 µM and the TGI [6] was > 100 µM. For the same compound, the TGI [7] was > 100 µM, the TGI [8] was > 100 µM and the TGI [9] was > 100 µM. The TGI [10] was > 100 µM.

With `C=C[C@@H]1CCC/C=C/[C@@H]2C[C@H](O)C[C@H]2[C@H](O)/C=C/C(=O)O1` the GI50 [1] was 0.709 µM, the TGI [1] was > 100 µM and the GI50 [2] was 0.554 µM. For the same compound, the TGI [2] was 19.8 µM, the GI50 [3] was 0.35 µM and the TGI [3] was 1.35 µM. The GI50 [4] was 0.44 µM, the TGI [4] was > 100 µM and the GI50 [5] was 0.545 µM. The TGI [5] was > 100 µM, the GI50 [6] was 0.37 µM and the TGI [6] was > 100 µM. The GI50 [7] was 0.475 µM, the TGI [7] was 16.6 µM and the GI50 [8] was 0.175 µM. The TGI [8] was 0.331 µM, the GI50 [9] was 0.407 µM and the TGI [9] was > 94.6 µM. For the same compound, the GI50 [10] was 0.34 µM and the TGI [10] was 1.2 µM.

Work on `O=C(Nc1ccc(Cl)cc1)c1cc(NCc2cc(O)ccc2O)ccc1O` yielded a GI50 [1] of 25 µM, a TGI [1] of 60.7 µM and a GI50 [2] of 11.1 µM. It also gave a TGI [2] of 23.6 µM, a GI50 [3] of 3.33 µM and a TGI [3] of 14.6 µM. The GI50 [4] was 3.04 µM, the TGI [4] was 14 µM and the GI50 [5] was 2.06 µM. For the same compound, the TGI [5] was 5.3 µM, the GI50 [6] was 1.45 µM and the TGI [6] was 3.21 µM. It also gave a GI50 [7] of 11.8 µM, a TGI [7] of 31.4 µM and a GI50 [8] of 6.12 µM. For the same compound, the TGI [8] was 20 µM, the GI50 [9] was 2.9 µM and the TGI [9] was > 100 µM. For the same compound, the GI50 [10] was 10.1 µM and the TGI [10] was 22.4 µM.

`COc1ccc(-c2oc3ncnc(N)c3c2-c2ccc(NC(=O)Nc3cc(C(F)(F)F)ccc3F)cc2)cc1` was tested, and the GI50 [1] was 0.894 µM, the TGI [1] was 5.09 µM and the GI50 [2] was 0.67 µM. It also gave a TGI [2] of 3.37 µM, a GI50 [3] of 0.00588 µM and a TGI [3] of 1.51 µM. It also gave a GI50 [4] of 1.03 µM, a TGI [4] of 3.76 µM and a GI50 [5] of 0.956 µM. The TGI [5] was 4.23 µM, the GI50 [6] was 0.706 µM and the TGI [6] was 5.01 µM. For the same compound, the GI50 [7] was 0.823 µM, the TGI [7] was 3.26 µM and the GI50 [8] was 1.52 µM. It also gave a TGI [8] of 4.41 µM, a GI50 [9] of 1.05 µM and a TGI [9] of 8.45 µM. For the same compound, the GI50 [10] was 1.94 µM and the TGI [10] was 5.26 µM.

`NC1=C(O)/C(=N/NS(=O)(=O)c2ccccc2)C(c2ccc3c(c2)OCO3)O1` (stereo not given) was tested, and the TGI [1] was > 100 µM, the TGI [2] was > 100 µM and the TGI [3] was > 100 µM. For the same compound, the TGI [4] was > 100 µM, the TGI [5] was > 100 µM and the TGI [6] was > 100 µM. The TGI [7] was > 100 µM, the TGI [8] was > 100 µM and the TGI [9] was > 100 µM. The TGI [10] was > 100 µM.

For `CC1(C)N=C(N)N=C(N)N1c1cccc(CCCCc2ccc(Cl)c(S(=O)(=O)F)c2)c1`, the GI50 [1] was 11.7 µM, the TGI [1] was 27.8 µM and the GI50 [2] was 10.7 µM. For the same compound, the TGI [2] was 39.3 µM, the GI50 [3] was 1.79 µM and the TGI [3] was 15.6 µM. For the same compound, the GI50 [4] was 1.47 µM, the TGI [4] was 16.2 µM and the GI50 [5] was 0.732 µM. The TGI [5] was 17.2 µM, the GI50 [6] was > 100 µM and the TGI [6] was > 100 µM. It also gave a GI50 [7] of 2.83 µM, a TGI [7] of 18.1 µM and a GI50 [8] of 0.612 µM. The TGI [8] was 12.9 µM, the GI50 [9] was 11.8 µM and the TGI [9] was 29.6 µM. For the same compound, the GI50 [10] was 7.67 µM and the TGI [10] was 21.2 µM.

In the case of `Clc1ccc(-c2nnc(-c3nn(-c4ccccc4)c4nc5ccccc5nc34)o2)cc1`, the TGI [1] is reported as > 100 µM, the TGI [2] is reported as > 100 µM and the TGI [3] is reported as > 100 µM. For the same compound, the TGI [4] was > 100 µM, the TGI [5] was > 100 µM and the TGI [6] was > 100 µM. For the same compound, the TGI [7] was > 100 µM, the TGI [8] was 32.3 µM and the TGI [9] was > 100 µM. For the same compound, the TGI [10] was > 100 µM.
